According to PubChem BioAssay (NCI):
Several values for one entry are separate records, joined by “and”; a condition that tells them apart may be missing. Identical values can stand only once.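 Dose response: 5 concentrations. Exposure: 48 h. Format: 96-well plates. Endpoint: linear interpolation; highest concentration if not reached. GI50 = concentration required for 50% inhibition of growth. The concentration for full growth arrest is given as TGI.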

Columns and labels:
Test in all cases: NCI-60 cell line screen, 48 h
MCF7 breast = tested on: MCF7 breast
SF-539 CNS = tested on: SF-539 CNS
OVCAR-3 ovarian = tested on: OVCAR-3 ovarian
HL-60(TB) leukemia = tested on: HL-60(TB) leukemia
HCT-116 colon = tested on: HCT-116 colon
RPMI-8226 leukemia = tested on: RPMI-8226 leukemia
SF-268 CNS = tested on: SF-268 CNS
RXF 393 renal = tested on: RXF 393 renal
COLO 205 colon = tested on: COLO 205 colon
IGROV1 ovarian = tested on: IGROV1 ovarian

| Structure (SMILES) | GI50 (MCF7 breast) | TGI (MCF7 breast) | GI50 (SF-539 CNS) | TGI (SF-539 CNS) | GI50 (OVCAR-3 ovarian) | TGI (OVCAR-3 ovarian) | GI50 (HL-60(TB) leukemia) | TGI (HL-60(TB) leukemia) | GI50 (HCT-116 colon) | TGI (HCT-116 colon) | GI50 (RPMI-8226 leukemia) | TGI (RPMI-8226 leukemia) | GI50 (SF-268 CNS) | TGI (SF-268 CNS) | GI50 (RXF 393 renal) | TGI (RXF 393 renal) | GI50 (COLO 205 colon) | TGI (COLO 205 colon) | GI50 (IGROV1 ovarian) | TGI (IGROV1 ovarian) |
| --- | --- | --- | --- | --- | --- | --- | --- | --- | --- | --- | --- | --- | --- | --- | --- | --- | --- | --- | --- | --- |
| NCCCCCCCn1c2c(c3ccccc3c1=O)C(=O)c1ccccc1-2 | 1.1 µM | 2.71 µM | 1.66 µM | 3.09 µM | 1.86 µM | 4.1 µM | 1.38 µM | 2.87 µM | 1.42 µM | 2.81 µM | 1.09 µM | 2.62 µM | 2.1 µM | 6.34 µM | 1.57 µM | 3.39 µM | 2.07 µM | 5.15 µM | 1.43 µM | 3.58 µM |
| Cc1nnc(-c2cccc(-c3ccc(C(=O)NCC4CC4)cc3)c2)o1 | > 25 µM | > 25 µM | > 25 µM | > 25 µM | > 25 µM | > 25 µM | > 25 µM | > 25 µM | > 25 µM | > 25 µM | > 25 µM | > 25 µM | > 25 µM | > 25 µM | > 25 µM | > 25 µM | > 25 µM | > 25 µM | > 25 µM | > 25 µM |
| O=C(Nc1ccncc1)C(=O)c1cn(S(=O)(=O)c2ccc(Cl)cc2)c2ccccc12 | 0.354 µM | 38.7 µM | 0.696 µM | 12.5 µM | 0.538 µM | 9.44 µM | 0.401 µM | – | 0.415 µM | > 48.9 µM | 1.44 µM | > 100 µM | 1.39 µM | > 100 µM | 3.71 µM | 35.7 µM | > 61.5 µM | > 100 µM | 3.29 µM | > 100 µM |
| CC1CCCC(C(O)CC2CC(=O)NC(=O)C2)C1O (centres undefined) | – | > 100 µM | – | > 100 µM | – | > 100 µM | – | > 100 µM | – | > 100 µM | – | > 100 µM | – | > 100 µM | – | > 100 µM | – | > 100 µM | – | > 100 µM |
| CC(C)=CCC[C@](C)(O)[C@H]1CC[C@]2(C)[C@@H]1CC[C@@H]1[C@@]3(C)CC/C(=N/O)C(C)(C)[C@@H]3CC[C@]12C | 4.2 µM | > 100 µM | 24.3 µM | > 100 µM | 10.6 µM | 39.2 µM | 8.69 µM | > 100 µM | 4.13 µM | 27.2 µM | 7.68 µM | > 100 µM | 21.5 µM | > 100 µM | 8.23 µM | 38.4 µM | 11.4 µM | > 100 µM | 20 µM | 76.6 µM |
| O=C(Cc1ccc(F)c(F)c1)Nc1cc(C2(C(F)(F)F)CC2)nn1Cc1ccccc1 | 3.9 µM | > 15 µM | 4.33 µM | > 15 µM | 3.85 µM | 14.5 µM | 3.43 µM | 8.33 µM | 4.28 µM | > 15 µM | 2.82 µM | 8.67 µM | 4.27 µM | > 15 µM | 2.65 µM | 12.2 µM | 2.7 µM | 6.34 µM | 4.47 µM | > 15 µM |
| O=C(O)C1(C(=O)O)CCC1.[NH2-].[NH2-].[Pt+2] | 137 µM and 248 µM | > 250 µM | 81.2 µM and 96 µM | 221 µM and > 250 µM | 58.4 µM and 112 µM | 139 µM and 195 µM | 29.5 µM and 12.7 µM | 201 µM and 191 µM | 176 µM and 196 µM | 232 µM and > 250 µM | 165 µM and 186 µM | 234 µM and > 250 µM | 49.2 µM and 21.5 µM | 209 µM and 161 µM | 76 µM and 178 µM | 167 µM and > 250 µM | 224 µM and > 250 µM | > 250 µM | 47.2 µM and 91.8 µM | 130 µM and 194 µM |
| COc1cc(N(C)C)c(OC)cc1/C=C\c1ccnc2ccccc12 | – | > 10 µM | – | 6.48 µM | – | > 10 µM | – | 7.99 µM | – | > 10 µM | – | 7.32 µM | – | > 10 µM | – | > 10 µM | – | > 10 µM | – | > 10 µM |
